# From patent US11274283B2 (priority 2014, dated 2022)
# How the values were obtained:
# [1] = system: Ralstonia solanacearum tyrosinase; assay type: biochemical; details: up to 400 mM
# mushroom tyrosinase [2] = details: at 5 mM; scientific literature; cited from earlier work
# mushroom tyrosinase [3] = assay: Inhibition of mushroom tyrosinase; assay type: biochemical; details: cannot complete the reaction
smiles,measurement,setting,value
O=C1O[C@H]([C@@H](O)CO)C([O-])=C1O.[Na+] [ascorbic acid sodium salt],inhibition of Ralstonia solanacearum tyrosinase activity,[1],No inhibition
O=C1O[C@H]([C@@H](O)CO)C(O)=C1O [ascorbic acid],inhibition of mushroom tyrosinase,mushroom tyrosinase [2],inhibition
"OCCc1ccc(O)cc1 [tyrosol, 4-(2-hydroxyethyl)phenol]",tyrosol concentration above which commercial mushroom tyrosinase is inhibited,mushroom tyrosinase [3],above 10 g/l
